# PMC6332318, “Synthetic Development of New 3-(4-Arylmethylamino)butyl-5-arylidene-rhodanines under Microwave Irradiation and Their Effects on Tumor Cell Lines and against Protein Kinases” (Molecules, 2015)
# Read-outs that look alike come from different tables or passages of the source.
# Experiments:
# [1] = test system: Caco 2 cells (differentiating colorectal adenocarcinoma); experiment: in vitro inhibition of cell proliferation / survival assay; assay type: cell-based; settings: for viability at 25 µM / IC50: Homo sapiens; for viability at 25 µM / % of Survival: measured at 25 μM after 48 h, single dose, triplicate; for IC50: 48 h, average of three assays, standard error ± 0.5 μM
# Protocol: (§1) As an initial effort to investigate their in vitro bioactivity, the new synthesized 3-(4-arylmethylamino)butyl-2-thioxo-1,3-thiazolidine-4-one 9a–n and also their precursors 6a–f were evaluated for their in vitro inhibition of cell proliferation. For this study, we used a panel of seven representative tumoral cell lines, namely HuH7 D12 (differential hepato cellular carcinoma), Caco 2 (differentiating colorectal adenocarcinoma), MDA-MBD231 ([…]), HCT 116 (actively proliferating colorectal adenocarcinoma), PC3 (prostate carcinoma), NCI-H727 (lung carcinoma), HaCat keratinocyte and, diploid skin fibroblasts as normal cell lines for control.
# (§2) Skin diploid fibroblastic cells were provided by BIOPREDIC International Company (Rennes, France). Caco2 (Ref ECACC: 86010202), Huh-7D12 (Ref ECACC: 01042712), MDA-MB-231 (Ref ECACC: 92020424), HCT-116 (Ref ECACC: 91091005), PC3 (Ref ECACC: 90112714), NCI-H727 (Ref ECACC: 94060303) cell lines were obtained from the ECACC collection and HaCaT (from Cell Lines Service, Eppelheim, Germany). Cells were grown according to ECACC recommendations. The toxicity test of the compounds on these cells was as follows: 2 × 10^3 cells for HCT-116 cells or 4 × 10^3 for the other cells were seeded in 96 multiwell plates in triplicate and left for 24 h for attachment, spreading and growing. Then, cells were exposed for 48 h to increasing concentrations of the compounds, ranging from 0.1 to 25 μM in a final volume of 120 μL of culture medium. Cells were fixed in cooled solution of 90% ethanol/5% acetic acid, nuclei were stained with Hoechst 3342 (Sigma) and counted using automated imaging analysis (Cellomics Arrayscan VTI/HCS Reader, Thermo/Scientific, Waltham, MA, USA). The IC50 were graphically determined.
# [2] = test system: HCT 116 cells (actively proliferating colorectal adenocarcinoma); experiment: as above; assay type: cell-based; settings: for viability at 25 µM / IC50: Homo sapiens; for viability at 25 µM / % of Survival: measured at 25 μM after 48 h, single dose, triplicate; for IC50: 48 h, average of three assays, standard error ± 0.5 μM
# Protocol: as §1, §2
# [3] = test system: HaCat keratinocyte; experiment: as above; assay type: cell-based; settings: for viability at 25 µM / IC50: Homo sapiens; for viability at 25 µM / % of Survival: measured at 25 μM after 48 h, single dose, triplicate; for IC50: HaCaT, 48 h, average of three assays, standard error ± 0.5 μM
# Protocol: as §1, §2
# [4] = test system: Huh7 D12 cells (differential hepato cellular carcinoma); experiment: as above; assay type: cell-based; settings: for viability at 25 µM: Huh-7D12, measured at 25 μM after 48 h; for viability at 25 µM / % of Survival: single dose, triplicate; for % of Survival: measured at 25 μM after 48 h; for IC50: Huh-7D12, 48 h, average of three assays, standard error ± 0.5 μM
# Protocol: as §1, §2
# [5] = test system: MDA-MB231 cells; experiment: as above; assay type: cell-based; settings: for viability at 25 µM / IC50: Homo sapiens; for viability at 25 µM: MDA-MB-231, measured at 25 μM after 48 h; for viability at 25 µM / % of Survival: single dose, triplicate; for % of Survival: measured at 25 μM after 48 h; for IC50: MDA-MB-231, 48 h, average of three assays, standard error ± 0.5 μM
# Protocol: as §1, §2
# [6] = test system: NCI-H727 cells (lung carcinoma); experiment: as above; assay type: cell-based; settings: for viability at 25 µM: Homo sapiens, read-out: % of Survival
# Protocol: as §1, §2
# [7] = test system: PC3 cells (prostate carcinoma); experiment: as above; assay type: cell-based; settings: for viability at 25 µM: PC-3, measured at 25 μM after 48 h; for viability at 25 µM / % of Survival: single dose, triplicate; for % of Survival: measured at 25 μM after 48 h
# Protocol: as §1, §2
# [8] = test system: diploid skin fibroblasts; experiment: in vitro inhibition of cell proliferation / survival assay, normal cells control; assay type: cell-based; settings: for viability at 25 µM: read-out: % of Survival
# Protocol: as §1, §2
# [9] = NCI-H727, measured at 25 μM after 48 h, single dose, triplicate
# [10] = Skin fibroblast, Fibroblasts, measured at 25 μM after 48 h, single dose, triplicate
# [11] = Fibroblasts, measured at 25 μM after 48 h, single dose, triplicate
Compound,viability at 25 µM [1] [%],viability at 25 µM [2] [%],viability at 25 µM [3] [%],viability at 25 µM [4] [%],viability at 25 µM [5] [%],"viability at 25 µM [6, 9] [%]",viability at 25 µM ([7]; Homo sapiens) [%],"viability at 25 µM [8, 10] [%]",melting point,also measured
"COc1cccc(CNCCCCN2C(=O)/C(=C/c3ccc4c(c3)OCO4)SC2=S)c1 [Compound 9e, (5Z)3-[4-(3-Methoxyphenylmethylamino)butyl]-5-(1,3-benzodioxol-5-ylmethylene)-2-thioxo-1,3-thiazolidin-4-one]",97,99,86,74,97,102,85,122,,
"COc1ccc(CNCCCCN2C(=O)/C(=C/c3ccc4c(c3)OCO4)SC2=S)cc1 [Compound 9a, (5Z)3-[4-(4-Methoxyphenylmethylamino)butyl]-5-(1,3-benzodioxol-5-ylmethylene)-2-thioxo-1,3-thiazolidin-4-one]",109,109,103,85,100,104,92,104,170 to 229 °C (dec.),
"Cl.NCCCCNCc1ccccc1Cl [Compound 6c, N-1-(2-Chloro-phenylmethyl)-butane1,4-diamine hydrochloride]",,,,,,,,,,"% of Survival [1]: 93%; % of Survival [2]: 98%; % of Survival [3]: 80%; % of Survival [4]: 82%; % of Survival [5]: 102%; % of Survival [6, 9]: 100%; % of Survival [7]: 96%; % of Survival [8, 11]: 84%"
"O=C1/C(=C/c2ccc3c(c2)OCCO3)SC(=S)N1CCCCNCc1ccc2c(c1)OCCO2 [Compound 9m, (5Z)3-[4-(2,3-Dihydro-benzo[1,4]dioxin-6-ylmethylamino)butyl]-5-(2,3-dihydro-benzo[1,4]dioxin-6-ylmethylene)-2-thioxo-1,3-thiazolidin-4-one]",107,103,94,97,99,98,96,149,,
"CC(=O)O[C@H]1C(=O)[C@@]2(C)[C@H]([C@H](OC(=O)c3ccccc3)[C@]3(O)C[C@H](OC(=O)[C@H](O)[C@@H](NC(=O)c4ccccc4)c4ccccc4)C(C)=C1C3(C)C)[C@]1(OC(C)=O)CO[C@@H]1C[C@@H]2O [Taxol, reference compound]",29,9,11,36,41,59,35,76,,"IC50 [1]: 40 nM; IC50 [2]: < 1 nM; IC50 [3]: 1 nM; IC50 [4]: 3 nM; IC50 [5]: 40 nM; IC50 ([7]; Homo sapiens, PC-3, 48 h, average of three assays, standard error ± 0.5 μM): < 1 nM; IC50 ([8]; Skin fibroblast, Fibroblasts, 48 h, average of three assays, standard error ± 0.5 μM): > 25 µM"
"CC[C@H](CO)Nc1nc(NCc2ccccc2)c2ncn(C(C)C)c2n1 [Roscovitine, reference compound]",,,,,,,,,,"viability at 25 µM ([6]; NCI-H727, 48 h): 30%; viability at 25 µM ([8]; Skin fibroblast, 48 h): 53%"
"O=C1/C(=C/c2ccc3c(c2)OCO3)SC(=S)N1CCCCNCc1ccc2c(c1)OCCO2 [Compound 9l, (5Z)-[4-(2,3-Dihydro-benzo[1,4]dioxin-6-ylmethylamino)butyl]-5-(1,3-benzodioxol-5-ylmethylene)-2-thioxo-1,3-thiazolidin-4-one]",105,106,95,90,98,96,93,128,,
"COc1ccc(/C=C2\SC(=S)N(CCCCNCc3ccc(OC)cc3)C2=O)cc1 [Compound 9b, (5Z)3-[4-(4-Methoxyphenylmethylamino)butyl]-5-(4-methoxybenzylidene)-2-thioxo-1,3-thiazolidin-4-one]",108,102,104,105,97,90,99,167,253 to 255 °C,
"Cl.NCCCCNCc1ccc2c(c1)OCCO2 [Compound 6f, N-1-(2,3-Dihydro-benzo[1,4]dioxin-6-ylmethyl)-butane-1,4-diamine hydrochloride]",,,,,,,,,,"% of Survival [1]: 109%; % of Survival [2]: 96%; % of Survival [3]: 94%; % of Survival [4]: 88%; % of Survival [5]: 99%; % of Survival [6, 9]: 92%; % of Survival [7]: 97%; % of Survival [8, 11]: 105%"
"COc1cccc(CNCCCCN2C(=O)/C(=C/c3ccc4c(c3)OCCO4)SC2=S)c1 [Compound 9f, (5Z)3-[4-(3-Methoxyphenylmethylamino)butyl]-5-(2,3-dihydro-1,4-benzodioxin-6-ylmethylene)-2-thioxo-1,3-thiazolidin-4-one]",110,113,100,102,98,96,98,134,247 to 251 °C,
"COc1cccc(CNCCCCN)c1.Cl [Compound 6d, N-1-(3-Methoxy-phenylmethyl)-butane-1,4-diamine hydrochloride]",,,,,,,,,,"% of Survival [1]: 111%; % of Survival [2]: 111%; % of Survival [3]: 96%; % of Survival [4]: 107%; % of Survival [5]: 99%; % of Survival [6, 9]: 92%; % of Survival [7]: 98%; % of Survival [8, 11]: 93%"
"COc1cccc(/C=C2\SC(=S)N(CCCCNCc3cccc(OC)c3)C2=O)c1 [Compound 9g, (5Z)3-[4-(3-Methoxyphenylmethylamino)butyl]-5-(3-methoxybenzylidene)-2-thioxo-1,3-thiazolidin-4-one]",117,118,110,111,104,95,98,100,225 to 227 °C,
"Cl.NCCCCNCc1ccccc1 [Compound 6a, N-1-Phenylmethyl-butane-1,4-diamine hydrochloride]",114,112,97,102,104,97,100,93,> 260 °C,
"COc1cccc2c1C(=O)c1c(O)c3c(c(O)c1C2=O)C[C@@](O)(C(=O)CO)C[C@@H]3O[C@H]1C[C@H](N)[C@H](O)[C@H](C)O1 [Doxorubicine, reference compound]",43,22,88,63,82,65,34,74,,IC50 [1]: 30 nM; IC50 [2]: 30 nM; IC50 [3]: 20 nM; IC50 [4]: 30 nM; IC50 [5]: 10 nM
"COc1ccc(CNCCCCN)cc1.Cl [Compound 6b, N-1-(4-Methoxy-phenylmethyl)-butane1,4-diamine hydrochloride]",,,,,,,,,,"% of Survival [1]: 114%; % of Survival [2]: 112%; % of Survival [3]: 106%; % of Survival [4]: 107%; % of Survival [5]: 100%; % of Survival [6, 9]: 86%; % of Survival [7]: 100%; % of Survival [8, 11]: 100%"
